Assay results published in ChEMBL document CHEMBL5532685 (J Nat Prod, 2024).

Experiments:
Prothrombin = Prothrombin (Homo sapiens, UniProt P00734); test: Inhibition of human thrombin
[1] = target: Programmed cell death protein 1/Programmed cell death 1 ligand 1 (Homo sapiens, UniProt Q15116+Q9NZQ7); test: Inhibition of PD-1/PD-L1 (unknown origin) protein protein interaction; assay type: protein-complex assay
Procathepsin L = Procathepsin L (Homo sapiens, UniProt P07711); test: Inhibition of human cathepsin L
[2] = target: Spike glycoprotein/Angiotensin-converting enzyme 2 (Severe acute respiratory syndrome coronavirus 2, UniProt P0DTC2+Q9BYF1); test: Inhibition of His-tagged SARS-CoV2 USA-WA1/2020 spike-RBD/biotinylated Fc-tagged ACE2 (unknown origin) protein protein interaction incubated for 1 hr by Alphascreen assay
[3] = target: Replicase polyprotein 1ab (Severe acute respiratory syndrome coronavirus 2, UniProt P0DTD1); test: Inhibition of SARS-CoV2 MPro using Dabcyl-KTSAVLQSGFRKME-Edans as substrate by fluorescence based analysis

Chain of Spike glycoprotein/Angiotensin-converting enzyme 2 (Q9BYF1 18-805 limits assumed, other chains not shown): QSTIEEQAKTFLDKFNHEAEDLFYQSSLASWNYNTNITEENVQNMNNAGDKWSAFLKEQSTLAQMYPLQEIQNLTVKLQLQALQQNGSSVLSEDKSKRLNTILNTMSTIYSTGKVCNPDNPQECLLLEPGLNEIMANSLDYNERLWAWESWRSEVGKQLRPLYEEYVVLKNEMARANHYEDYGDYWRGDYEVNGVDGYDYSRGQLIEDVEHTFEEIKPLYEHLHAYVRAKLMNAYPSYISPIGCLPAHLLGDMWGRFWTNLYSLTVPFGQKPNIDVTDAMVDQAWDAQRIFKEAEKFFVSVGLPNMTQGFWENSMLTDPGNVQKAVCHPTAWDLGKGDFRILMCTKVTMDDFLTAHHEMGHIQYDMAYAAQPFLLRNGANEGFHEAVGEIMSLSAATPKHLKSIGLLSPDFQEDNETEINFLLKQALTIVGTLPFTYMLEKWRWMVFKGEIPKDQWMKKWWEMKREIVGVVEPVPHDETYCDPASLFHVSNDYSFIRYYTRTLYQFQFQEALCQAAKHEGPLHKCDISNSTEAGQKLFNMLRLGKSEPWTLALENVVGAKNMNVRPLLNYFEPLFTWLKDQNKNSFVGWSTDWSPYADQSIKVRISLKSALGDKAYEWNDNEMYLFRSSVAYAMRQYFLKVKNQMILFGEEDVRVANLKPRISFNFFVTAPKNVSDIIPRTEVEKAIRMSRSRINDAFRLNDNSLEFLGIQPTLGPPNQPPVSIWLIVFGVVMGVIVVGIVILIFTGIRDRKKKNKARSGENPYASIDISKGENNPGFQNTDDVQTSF
Chain of Procathepsin L (P07711 whole entry): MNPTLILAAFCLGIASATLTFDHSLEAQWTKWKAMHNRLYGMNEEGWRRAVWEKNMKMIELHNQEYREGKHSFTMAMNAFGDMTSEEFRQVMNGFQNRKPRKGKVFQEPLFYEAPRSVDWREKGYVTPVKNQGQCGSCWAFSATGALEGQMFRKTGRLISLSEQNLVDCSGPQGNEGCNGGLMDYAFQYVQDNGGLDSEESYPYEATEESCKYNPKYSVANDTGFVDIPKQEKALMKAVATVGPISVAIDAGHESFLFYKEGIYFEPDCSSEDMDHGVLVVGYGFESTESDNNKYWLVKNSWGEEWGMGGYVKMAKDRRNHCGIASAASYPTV
Chain of Programmed cell death protein 1/Programmed cell death 1 ligand 1 (Q15116 whole entry): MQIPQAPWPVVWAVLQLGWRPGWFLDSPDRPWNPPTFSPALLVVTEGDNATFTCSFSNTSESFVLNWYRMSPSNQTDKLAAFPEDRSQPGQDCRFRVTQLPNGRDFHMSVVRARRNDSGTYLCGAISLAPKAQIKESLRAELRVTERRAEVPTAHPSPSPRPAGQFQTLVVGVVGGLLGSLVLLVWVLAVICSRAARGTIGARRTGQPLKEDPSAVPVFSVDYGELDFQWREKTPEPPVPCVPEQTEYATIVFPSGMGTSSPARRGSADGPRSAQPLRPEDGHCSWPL
Chain of Programmed cell death protein 1/Programmed cell death 1 ligand 1 (Q9NZQ7 whole entry): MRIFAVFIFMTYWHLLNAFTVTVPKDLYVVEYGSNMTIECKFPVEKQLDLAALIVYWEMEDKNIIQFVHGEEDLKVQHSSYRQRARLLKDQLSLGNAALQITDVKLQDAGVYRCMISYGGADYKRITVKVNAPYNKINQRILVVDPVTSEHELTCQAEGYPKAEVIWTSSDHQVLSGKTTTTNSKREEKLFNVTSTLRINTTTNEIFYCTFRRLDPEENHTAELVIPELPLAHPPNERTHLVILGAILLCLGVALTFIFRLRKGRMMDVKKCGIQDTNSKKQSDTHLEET

CCCCCCCCCC(C)CCC(C)C(=O)O (configuration not stated)
IC50 (Prothrombin): > 390 µM | IC50 [1]: > 390 µM | IC50 (Procathepsin L): 218 µM

CCCCCCCCCC(C)CCC(C)C(=O)OC (configuration not stated)
IC50 [2]: > 370 µM | IC50 [3]: > 370 µM

CCCCCCCCCC(C)CCC(C)C(=O)OCc1ccccc1 (configuration not stated)
IC50 [2]: > 289 µM | IC50 [3]: > 289 µM
